Laboratory results taken from PubChem BioAssay (NCI).
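Interpolation was linear, between the two tested concentrations surrounding the appropriate level; five concentrations were tested over 48 hours in 96-well plates. GI50 = concentration required for 50% inhibition of growth. Definition used: TGI = concentration required for complete inhibition of growth.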

Key:
Assay in all cases: NCI-60 cell line screen, 48 h
[1] = tested on: ACHN renal
[2] = tested on: EKVX NSCLC
[3] = tested on: HT29 colon
[4] = tested on: M14 melanoma
[5] = tested on: RPMI-8226 leukemia
[6] = tested on: SF-539 CNS
[7] = tested on: SK-MEL-5 melanoma
[8] = tested on: SNB-19 CNS
[9] = tested on: SR leukemia

## O=c1[nH]c(=O)n([C@@H]2C[C@H](CO)[C@H](O)C2)cc1/C=C/Br
[1]
  TGI: > 100 µM
[2]
  TGI: > 100 µM
[3]
  TGI: > 100 µM
[4]
  TGI: > 100 µM
[5]
  TGI: > 100 µM
[6]
  TGI: > 100 µM
[7]
  TGI: > 100 µM
[8]
  TGI: > 100 µM

## COC(=O)C1C(O)CC(c2ccccn2)N(Cc2ccccc2)C1c1ccccn1 (stereo not given)
[1]
  TGI: > 100 µM
[2]
  TGI: > 100 µM
[3]
  TGI: > 100 µM
[4]
  TGI: > 100 µM
[5]
  TGI: > 100 µM
[6]
  TGI: > 100 µM
[7]
  TGI: > 100 µM
[8]
  TGI: > 100 µM

## O=C([CH-]C(=O)c1ccccc1)c1ccccc1.O=C([CH-]C(=O)c1ccccc1)c1ccccc1.O=C([CH-]C(=O)c1ccccc1)c1ccccc1.[Nd+3].[OH3+]
[1]
  GI50: 5.93 µM
  TGI: 21.2 µM
[2]
  GI50: 2.8 µM
  TGI: 13.9 µM
[3]
  GI50: 4.64 µM
  TGI: 16.1 µM
[4]
  GI50: 6.89 µM
  TGI: 21.2 µM
[5]
  GI50: 3.47 µM
  TGI: 26.4 µM
[6]
  GI50: 13.7 µM
  TGI: 45.9 µM
[7]
  GI50: 2.79 µM
  TGI: 11.8 µM
[8]
  GI50: 4.52 µM
  TGI: 29.1 µM

## Oc1cc(O)c(Oc2cccc(O)c2O)c(O)c1
[1]
  TGI: > 100 µM
[2]
  TGI: > 100 µM
[3]
  TGI: > 100 µM
[4]
  TGI: > 100 µM
[5]
  TGI: > 100 µM
[6]
  TGI: > 100 µM
[7]
  TGI: 38.7 µM
[8]
  TGI: > 100 µM

## O=C(Nc1cccc([N+](=O)[O-])c1)C(=O)C(C(=O)c1ccccc1-c1ccccc1)C1OC(=O)c2ccccc21 (stereo not given)
[1]
  TGI: > 100 µM
[2]
  TGI: 59.1 µM
[3]
  TGI: > 100 µM
[4]
  TGI: 41.1 µM
[5]
  TGI: 60.3 µM
[6]
  TGI: 28.4 µM
[7]
  TGI: 30.7 µM

## COC1=CC(=O)C2C(C1=O)[C@@H]1c3ccccc3C[C@H]21 (stereo not given in full)
[1]
  TGI: > 100 µM
[2]
  TGI: > 100 µM
[3]
  TGI: > 100 µM
[4]
  TGI: > 100 µM
[5]
  TGI: > 100 µM
[6]
  TGI: > 100 µM
[7]
  TGI: > 100 µM
[8]
  TGI: > 100 µM
[9]
  TGI: > 100 µM

## CC1CC#CCOC(=O)CCCC1=O (stereo not given)
[3]
  TGI: > 100 µM
[4]
  TGI: > 100 µM
[5]
  TGI: > 100 µM
[6]
  TGI: > 100 µM
[7]
  TGI: > 100 µM
[8]
  TGI: > 100 µM

## O=C(c1ccccc1)C1CCCCN1C(=O)c1ccccc1 (stereo not given)
[1]
  TGI: > 100 µM
[4]
  TGI: > 100 µM
[5]
  TGI: > 100 µM
[6]
  TGI: > 100 µM
[7]
  TGI: > 100 µM
[8]
  TGI: > 100 µM
[9]
  TGI: > 100 µM

## OCCCOC(c1ccccc1)(c1ccccc1)c1ccccc1
[1]
  TGI: > 100 µM
[3]
  TGI: 92.8 µM
[4]
  TGI: > 100 µM
[5]
  TGI: > 100 µM
[6]
  TGI: > 100 µM
[7]
  TGI: > 100 µM
[9]
  TGI: > 100 µM

## CC1CCP(=O)(c2ccccc2)c2ccccc21 (stereo not given)
[1]
  TGI: > 100 µM
[2]
  TGI: > 100 µM
[3]
  TGI: > 100 µM
[4]
  TGI: > 100 µM
[5]
  TGI: > 100 µM
[6]
  TGI: > 100 µM
[7]
  TGI: > 100 µM
[8]
  TGI: > 100 µM
[9]
  TGI: 96.9 µM

## O=C(/C=C/C12c3ccccc3C(c3ccccc31)C1C(=O)N(c3ccccc3)C(=O)C12)c1ccccc1 (stereo not given)
[1]
  GI50: 1.63 µM
  TGI: 4.08 µM
[2]
  GI50: 2.09 µM
  TGI: > 100 µM
[3]
  GI50: 2.69 µM
  TGI: > 100 µM
[4]
  GI50: 2.51 µM
  TGI: 10.1 µM
[5]
  GI50: 1.55 µM
  TGI: 7.69 µM
[6]
  GI50: 2.09 µM
  TGI: 5.14 µM
[7]
  GI50: 2.29 µM
  TGI: 6.21 µM
[8]
  GI50: 3.08 µM
  TGI: > 100 µM
[9]
  GI50: 2.02 µM
  TGI: > 100 µM

## Cc1ccc(-c2cc(-c3ccco3)c(C#N)c(=O)[nH]2)cc1
[1]
  TGI: > 100 µM
[2]
  TGI: > 100 µM
[3]
  TGI: > 100 µM
[4]
  TGI: > 100 µM
[5]
  TGI: > 100 µM
[6]
  TGI: > 100 µM
[7]
  TGI: > 100 µM
[8]
  TGI: > 100 µM

## Cn1nc(-c2ccccc2)c(C(=O)/C=C/c2ccc(F)cc2)c(N2CCCCC2)c1=O
[1]
  TGI: 27.7 µM
[2]
  TGI: 72.3 µM
[3]
  TGI: 20.2 µM
[4]
  TGI: 28.6 µM
[5]
  TGI: 6.98 µM
[6]
  TGI: 16.4 µM
[7]
  TGI: 19.7 µM
[8]
  TGI: 55.4 µM

## COC[C@@H](N=CN1CCc2cc(OC)c(OC)cc2[C@@H]1C)C(C)(C)C
[1]
  TGI: > 100 µM
[2]
  TGI: > 100 µM
[3]
  TGI: > 100 µM
[4]
  TGI: > 100 µM
[5]
  TGI: > 100 µM
[6]
  TGI: > 100 µM
[7]
  TGI: > 100 µM
[8]
  TGI: > 100 µM
[9]
  TGI: > 100 µM

## CS(=O)(=O)OCCN1CCN(C(=O)c2cccc3c(Nc4ccc(S(=O)(=O)N=C(N)N)cc4)c4ccccc4nc23)CC1
[1]
  TGI: > 100 µM
[3]
  TGI: > 100 µM
[4]
  TGI: > 100 µM
[5]
  TGI: > 100 µM
[6]
  TGI: > 100 µM
[7]
  TGI: > 100 µM
[8]
  TGI: > 100 µM

## NC1CCCCC1.[O]=[Ge].[O]=[Ge].[O]=[Ge][OH].[O]=[Ge][OH]
[1]
  GI50: > 100 µM
  TGI: > 100 µM
[2]
  TGI: > 100 µM
[3]
  TGI: > 100 µM
[4]
  GI50: > 100 µM
  TGI: > 100 µM
[5]
  TGI: > 100 µM
[6]
  TGI: > 100 µM
[7]
  TGI: > 100 µM
[8]
  TGI: > 100 µM
[9]
  GI50: > 100 µM
  TGI: > 100 µM

## COc1cc(/C=C\c2ccc(C)cc2)cc(OC)c1OC
[1]
  TGI: > 100 µM
[2]
  GI50: < 0.022 µM
  TGI: > 100 µM
[5]
  TGI: 25.2 µM
[6]
  TGI: 0.0218 µM
[9]
  TGI: 0.0917 µM

## O=C(/C=C/c1ccccc1)CC1OC(=O)c2ccccc21 (stereo not given)
[1]
  TGI: > 100 µM
[2]
  TGI: > 100 µM
[3]
  TGI: > 100 µM
[4]
  TGI: > 100 µM
[5]
  TGI: 82.5 µM
[6]
  TGI: > 100 µM
[7]
  TGI: > 100 µM
[8]
  TGI: > 100 µM

## C1C[OH+]CC[OH+]CCNCC[OH+]CC[OH+]CCN1.[Cl-].[Pt+4]
[1]
  GI50: > 100 µM
  TGI: > 100 µM
[2]
  GI50: > 100 µM
  TGI: > 100 µM
[3]
  GI50: > 100 µM
  TGI: > 100 µM
[4]
  GI50: > 100 µM
  TGI: > 100 µM
[5]
  GI50: > 100 µM
  TGI: > 100 µM
[6]
  GI50: > 100 µM
  TGI: > 100 µM
[7]
  GI50: > 100 µM
  TGI: > 100 µM
[8]
  GI50: > 100 µM
  TGI: > 100 µM

## COc1ccc(NC(=O)C(=O)Cc2nc3ccc([N+](=O)[O-])cc3[nH]c2=O)c(OC)c1
[1]
  TGI: > 100 µM
[2]
  TGI: > 100 µM
[3]
  TGI: > 100 µM
[4]
  TGI: > 100 µM
[6]
  TGI: > 100 µM
[7]
  TGI: > 100 µM
[8]
  TGI: > 100 µM

## Nc1nc2c(c(=O)[nH]1)NC(CO)CN2 (stereo not given)
[1]
  TGI: > 100 µM
[2]
  TGI: > 100 µM
[3]
  TGI: > 100 µM
[4]
  TGI: > 100 µM
[5]
  TGI: > 100 µM
[6]
  TGI: > 100 µM
[8]
  TGI: > 100 µM

## COC(=O)C(C(=O)C(=O)Nc1ccc(C(F)(F)F)cc1[N+](=O)[O-])c1csc(-n2nc(-c3ccccc3)cc2-c2ccccc2)n1 (stereo not given)
[3]
  TGI: > 100 µM
[4]
  TGI: > 100 µM
[5]
  TGI: > 100 µM
[6]
  TGI: > 100 µM
[8]
  TGI: > 100 µM
[9]
  TGI: > 100 µM

## CC(=O)NNc1nc(C)c(C(=O)NNC(=O)C(=O)Nc2c(C)cccc2C)s1
[1]
  TGI: > 100 µM
[2]
  TGI: > 100 µM
[3]
  TGI: > 100 µM
[4]
  TGI: > 100 µM
[5]
  TGI: > 100 µM
[6]
  TGI: > 100 µM
[7]
  TGI: > 100 µM
[8]
  TGI: > 100 µM
